# What was measured:
# Assay in all cases: Tyrosine kinase inhibition assay
# Format in all cases: biochemical
# Conditions in all cases: single concentration 1.0 μM, read-out: percent inhibition
# TXK = biological target: T1, TXK (Homo sapiens, UniProt P42681)
# T1 sequence (P42681 1-527): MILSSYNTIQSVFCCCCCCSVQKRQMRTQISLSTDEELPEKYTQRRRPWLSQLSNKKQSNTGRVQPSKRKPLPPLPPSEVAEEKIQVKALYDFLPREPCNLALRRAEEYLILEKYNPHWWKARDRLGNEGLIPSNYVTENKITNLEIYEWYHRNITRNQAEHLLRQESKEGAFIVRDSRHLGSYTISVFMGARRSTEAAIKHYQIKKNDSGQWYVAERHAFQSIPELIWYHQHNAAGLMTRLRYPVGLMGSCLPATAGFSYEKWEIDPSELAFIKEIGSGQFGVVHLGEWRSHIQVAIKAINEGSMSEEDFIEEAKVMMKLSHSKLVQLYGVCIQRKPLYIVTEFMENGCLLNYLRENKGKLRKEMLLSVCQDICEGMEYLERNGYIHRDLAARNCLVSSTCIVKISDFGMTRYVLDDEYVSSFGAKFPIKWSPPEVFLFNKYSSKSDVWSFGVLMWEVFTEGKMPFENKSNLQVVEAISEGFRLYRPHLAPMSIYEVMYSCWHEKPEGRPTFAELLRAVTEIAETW
# Method in brief: (§1)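 Values are percent inhibition at 1.0 μM compound, with inhibition above 80% defined as a hit. Peptide substrate phosphorylation was assessed by Z′-LYTE at apparent-Km ATP in HEPES pH 7.5 buffer containing MgCl2, EGTA and BRIJ-35.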
# EPHA3 = biological target: T2, EPHA3 (Homo sapiens, UniProt P29320)
# T2 sequence (P29320 21-983): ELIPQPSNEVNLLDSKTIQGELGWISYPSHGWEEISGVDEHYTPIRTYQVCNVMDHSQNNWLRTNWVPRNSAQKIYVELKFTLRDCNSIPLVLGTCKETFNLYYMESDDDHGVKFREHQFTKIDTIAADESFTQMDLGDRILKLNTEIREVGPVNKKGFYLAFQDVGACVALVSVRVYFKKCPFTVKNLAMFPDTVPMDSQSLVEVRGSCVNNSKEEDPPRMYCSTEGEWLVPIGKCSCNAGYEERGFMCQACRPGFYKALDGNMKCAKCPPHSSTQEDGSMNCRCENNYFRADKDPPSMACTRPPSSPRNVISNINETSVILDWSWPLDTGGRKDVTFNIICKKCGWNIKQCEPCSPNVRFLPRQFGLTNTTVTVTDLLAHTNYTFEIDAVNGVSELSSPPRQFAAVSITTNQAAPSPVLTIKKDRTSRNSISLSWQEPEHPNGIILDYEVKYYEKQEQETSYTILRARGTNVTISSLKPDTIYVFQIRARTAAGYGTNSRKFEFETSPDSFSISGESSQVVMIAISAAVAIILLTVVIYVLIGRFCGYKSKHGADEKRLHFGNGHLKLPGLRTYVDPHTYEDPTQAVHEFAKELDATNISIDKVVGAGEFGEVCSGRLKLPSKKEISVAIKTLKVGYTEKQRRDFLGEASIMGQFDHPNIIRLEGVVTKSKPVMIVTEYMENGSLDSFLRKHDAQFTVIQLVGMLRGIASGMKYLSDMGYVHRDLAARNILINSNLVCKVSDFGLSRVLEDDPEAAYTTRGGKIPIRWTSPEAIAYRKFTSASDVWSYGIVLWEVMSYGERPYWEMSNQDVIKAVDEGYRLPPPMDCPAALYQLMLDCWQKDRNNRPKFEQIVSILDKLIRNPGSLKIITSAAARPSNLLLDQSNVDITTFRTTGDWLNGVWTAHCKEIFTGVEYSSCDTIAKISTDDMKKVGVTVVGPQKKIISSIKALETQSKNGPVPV
# Method in brief: as §1
# ZAP70 = biological target: T3, ZAP70 (Homo sapiens, UniProt P43403)
# T3 sequence (P43403 1-619): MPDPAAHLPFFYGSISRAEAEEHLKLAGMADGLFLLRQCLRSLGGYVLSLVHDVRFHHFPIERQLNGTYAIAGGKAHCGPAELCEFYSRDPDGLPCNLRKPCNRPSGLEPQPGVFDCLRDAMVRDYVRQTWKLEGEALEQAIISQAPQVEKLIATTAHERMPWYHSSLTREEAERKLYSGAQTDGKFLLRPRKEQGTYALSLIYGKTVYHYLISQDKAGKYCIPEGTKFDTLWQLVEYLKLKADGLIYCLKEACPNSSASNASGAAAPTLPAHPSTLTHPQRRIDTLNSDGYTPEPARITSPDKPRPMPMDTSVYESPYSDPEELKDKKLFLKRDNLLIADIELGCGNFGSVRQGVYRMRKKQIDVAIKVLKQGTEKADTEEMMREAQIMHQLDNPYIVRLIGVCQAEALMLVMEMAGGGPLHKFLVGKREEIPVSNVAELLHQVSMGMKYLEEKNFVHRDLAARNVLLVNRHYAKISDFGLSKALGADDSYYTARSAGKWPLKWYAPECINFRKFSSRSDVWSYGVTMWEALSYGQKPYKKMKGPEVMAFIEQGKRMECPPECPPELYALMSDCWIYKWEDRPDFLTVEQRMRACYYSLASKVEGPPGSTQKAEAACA
# Method in brief: as §1
# ERBB2 (HER2) = ERBB2 (HER2) (Homo sapiens, UniProt P04626)
# ERBB2 (HER2), sequence (P04626 23-1255): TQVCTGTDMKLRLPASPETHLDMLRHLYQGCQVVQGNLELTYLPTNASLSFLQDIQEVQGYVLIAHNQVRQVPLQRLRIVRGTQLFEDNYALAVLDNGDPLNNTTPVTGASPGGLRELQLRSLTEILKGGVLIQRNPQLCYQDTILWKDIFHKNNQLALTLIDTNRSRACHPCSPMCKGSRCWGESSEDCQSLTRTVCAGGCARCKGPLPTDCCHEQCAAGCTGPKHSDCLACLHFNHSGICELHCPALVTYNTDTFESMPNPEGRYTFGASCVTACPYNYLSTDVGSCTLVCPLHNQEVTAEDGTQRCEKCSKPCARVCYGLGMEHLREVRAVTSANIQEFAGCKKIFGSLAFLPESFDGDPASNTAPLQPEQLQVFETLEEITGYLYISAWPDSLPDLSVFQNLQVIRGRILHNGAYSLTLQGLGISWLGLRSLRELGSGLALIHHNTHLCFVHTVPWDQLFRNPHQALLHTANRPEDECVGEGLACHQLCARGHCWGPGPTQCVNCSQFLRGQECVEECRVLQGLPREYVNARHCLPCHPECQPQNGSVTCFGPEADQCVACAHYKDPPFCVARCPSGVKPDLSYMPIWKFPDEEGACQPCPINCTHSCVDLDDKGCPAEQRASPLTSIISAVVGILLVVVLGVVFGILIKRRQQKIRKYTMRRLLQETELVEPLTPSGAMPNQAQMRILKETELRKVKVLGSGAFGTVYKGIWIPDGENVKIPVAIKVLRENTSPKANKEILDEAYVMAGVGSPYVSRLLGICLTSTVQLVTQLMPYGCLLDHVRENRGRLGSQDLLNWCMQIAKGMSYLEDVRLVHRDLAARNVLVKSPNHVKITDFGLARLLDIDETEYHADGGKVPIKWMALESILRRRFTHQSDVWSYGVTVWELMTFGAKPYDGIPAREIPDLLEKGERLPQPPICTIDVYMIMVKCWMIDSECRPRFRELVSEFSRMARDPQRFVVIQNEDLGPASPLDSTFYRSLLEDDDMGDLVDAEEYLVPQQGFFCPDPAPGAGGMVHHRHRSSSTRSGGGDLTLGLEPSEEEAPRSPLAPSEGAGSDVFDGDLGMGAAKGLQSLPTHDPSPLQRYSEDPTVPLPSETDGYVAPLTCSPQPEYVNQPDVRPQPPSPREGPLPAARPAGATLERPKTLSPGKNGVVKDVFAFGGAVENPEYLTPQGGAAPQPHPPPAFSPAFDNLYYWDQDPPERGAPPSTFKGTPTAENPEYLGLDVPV
# Method in brief: as §1
# NTRK1 (TRKA) = NTRK1 (TRKA) (Homo sapiens, UniProt P04629)
# NTRK1 (TRKA), sequence (P04629 33-796): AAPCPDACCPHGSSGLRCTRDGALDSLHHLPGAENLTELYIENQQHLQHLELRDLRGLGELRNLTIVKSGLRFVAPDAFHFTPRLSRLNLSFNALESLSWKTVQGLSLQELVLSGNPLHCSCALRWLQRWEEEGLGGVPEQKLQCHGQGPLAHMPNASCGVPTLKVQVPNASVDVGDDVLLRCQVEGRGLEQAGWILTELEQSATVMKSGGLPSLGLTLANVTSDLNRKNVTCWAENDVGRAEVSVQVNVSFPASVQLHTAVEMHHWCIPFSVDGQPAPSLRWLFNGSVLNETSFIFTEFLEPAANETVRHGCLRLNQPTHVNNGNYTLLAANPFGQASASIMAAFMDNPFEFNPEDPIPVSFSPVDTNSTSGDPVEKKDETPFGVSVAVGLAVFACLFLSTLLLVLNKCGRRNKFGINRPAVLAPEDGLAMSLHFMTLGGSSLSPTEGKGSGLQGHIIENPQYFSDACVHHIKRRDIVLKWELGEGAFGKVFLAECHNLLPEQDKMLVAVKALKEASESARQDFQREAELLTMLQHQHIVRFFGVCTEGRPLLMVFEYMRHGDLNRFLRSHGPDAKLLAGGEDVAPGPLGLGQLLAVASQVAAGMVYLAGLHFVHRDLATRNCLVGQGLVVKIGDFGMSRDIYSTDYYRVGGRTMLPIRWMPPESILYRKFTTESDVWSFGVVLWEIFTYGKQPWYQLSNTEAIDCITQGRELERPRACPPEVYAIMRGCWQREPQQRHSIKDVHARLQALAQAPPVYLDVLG
# Method in brief: as §1
SMILES,inhibition at 1 µM (TXK) [%],inhibition at 1 µM (EPHA3) [%],inhibition at 1 µM (ZAP70) [%],inhibition at 1 µM (ERBB2 (HER2)) [%],inhibition at 1 µM (NTRK1 (TRKA)) [%]
COc1cc2nccc(Oc3ccc(NC(=O)C4(C(=O)Nc5ccc(F)cc5)CC4)cc3F)c2cc1Oc1ccc(N)cc1F [Cbo-23],32,97,5,54,97
COc1cc2nccc(Oc3ccc(NC(=O)C4(NC(=O)c5ccc(F)cc5)CC4)cc3F)c2cc1Oc1ccc(N)cc1F [Cbo-10],55,14,6,90,80
"COc1cc2nccc(Oc3ccc(NC(=O)C4(NC(=O)c5ccc(F)cc5)CC4)cc3F)c2cc1OC [Cbo-02, N-(1-((4-((6,7-diMethoxyquinolin-4-yl)oxy)-3-fluorophenyl)carbamoyl)cyclopropyl)-4-fluorobenzamide]",14,-3,14,50,58
COc1cc2nccc(Oc3ccc(NC(=O)C4(NC(=O)c5ccc(F)cc5)CC4)cc3F)c2cc1Oc1c(F)cc(N)cc1F [Cbo-14],52,24,9,90,71
"COc1cc2nccc(Oc3ccc(NC(=O)C4(C(=O)Nc5ccc(F)cc5)CC4)cc3)c2cc1OC [Cabozantinib, reference compound]",17,100,13,17,98
